According to US20040019082A1, “Reversible infertility in male mice following oral administration of alkylated imino sugars: a non-hormonal approach to male contraception” (United Therapeutics Corporation, priority 2002, published 2004):

Columns and labels:
Type in all cases: in vivo, mouse
[1] = system: male C57BL/6 mice; assay: Mating assay, fertility of male mice; conditions: 250 mg/kg/day
Text: Treatment of mice—Male C57BL/6 mice were housed under standard non-sterile conditions. The mice were provided with water ad lib. and prior to drug administration were fed a diet of pelleted mouse chow (expanded Rat and Mouse Chow 3, SDS Ltd.) To administer the compounds of the present invention, the mice were fed a diet of powdered mouse chow (expanded Rat and Mouse Chow 1, ground, SDS Ltd.) containing either NB-DNJ, NB-DGJ, NN-6-MeDGJ, or DNJ. The diet and compound (both as dry solids) were mixed thoroughly, stored at room temperature, and used within 7 days of mixing.
Mating assays—To assess the fertility of male mice that were fed on a diet containing an iminosugar, a mating assay was used: typically six week old male C57BL/6 mice in groups of three were administered diet containing compound for five weeks (unless otherwise specified), after which each of them was caged with four untreated female C57BL/6 mice, and provided with standard pelleted chow. Females were at least 11 weeks old, and age-matched in each experiment. The male was removed from the females after 7 or 9 days, depending on the experiment; the females were monitored for vaginal mucous plugs, pregnancies, and, if any, litter sizes. To study any effect on female fertility six-week-old female C57BL/6 mice were treated with NB-DNJ for five weeks, after which each of them was caged with a non-treated age-matched male for four days.

[2] = Body, gonad and organ weights of treated mice
[3] = system: liver glycogen; assay: Liver glycogen levels in fed or starved mice; conditions: 250 mg/kg/day
Experimental: Liver glycogen levels were measured in untreated and NN-DGJ-treated mice (FIG. 6B), who were either provided food or starved.

CCCCCCCCCN1C[C@H](O)[C@@H](O)[C@@H](O)[C@H]1CO [NN-DGJ]
fertility of male mice ([1]; after five weeks of treatment, four treated mice): completely suppressed
litter size compared with untreated males ([1]; six weeks after withdrawal): almost the same
fertility of male mice after withdrawal ([1]; six weeks following withdrawal): fully regained fertility
thymus and spleen weights ([2]; 250 mg/kg/day): did not affect
body weight relative to untreated mice ([2]; 250 mg/kg/day over a 40 day period, n=8): did not affect
breakdown of liver glycogen during starvation [3]: did not inhibit
